The test system of experiment [1] is hyperlipidemia mice. Briefly: Example 14 lipid lowering screening test in yolk emulsion hyperlipidemia mice. It is filed as in vivo. The settings on record: hyperlipidemia ICR mice; ig once daily 7 days; dose 20 mg/kg; X±SD, 10 animals. How it is done:
As described before, the test medicine is the mixture of H series and B series in the ratio H:B (3:1). Recommended dose (for animal) is: […] the recommended does is 200 mg/kg. • Test medicine 1: H1+B1, ig 0.2 ml/10 g; • Test medicine 2: H2+B1, ig 0.2 ml/10 g; • Test medicine 3: H3+B1, ig 0.2 ml/10 g; • Test medicine 4: H4+B1, ig 0.2 ml/10 g; • Test medicine 5: H5+B1, ig 0.2 ml/10 g; • Test medicine 6: H1+B2, ig 0.2 ml/10 g; • Test medicine 7: H2+B2, ig 0.2 ml/10 g; • Test medicine 8: H3+B2, ig 0.2 ml/10 g; • Test medicine 9: H4+B2, ig 0.2 ml/10 g; • Test medicine 10: H5+B2, ig 0.2 ml/10 g; • Test medicine 11: HB ig 0.2 ml/10 g.
130 SPF ICR mice were employed with the body weight 20±2 g, half are male and the other half are female. Provided by Zhejiang Province Experimental Animal Center, Licence: SCXK(ZHE)2003-0001
(§1) 90 ml yolk and 30 ml physiological Saline were mixed thoroughly in electric mixer to form emulsion, which was stored at 4° C. for further use.
(§2) 140 ICR mice were randomly divided into 14 groups: test medicine 1, test medicine 2, test medicine 3, test medicine 4, test medicine 5, test medicine 6, test medicine 7, test medicine 8, test medicine 9, test medicine 10, test medicine 11, postive control group (Zocor), model control group and normal control group, 10 mice for each group, half male and half female. Once daily for a continous 7-day period, the model control group and normal control group were provided with same volume of distilled water, while the other groups were administered with medicines by gastric perfusion. 2 hours after the last gastric perfusion, except of the normal control group, fresh yolk emulsion was intraperitoneally injected to the rest 13 groups of mice, 0.5 ml for a single animal. After 20 hours, eye ball was plucked and blood was collected, make sure 12 hours fasting before the collection. The content of total cholesterol (TC), triglyceride (TG) and high density lipoprotein (HDL-C) of the serum were measured.
EXCEL was employed to analyze the significant difference between the groups. The result is shown in X±SD.

The subject of experiment [2] is hyperlipidemia mice. Briefly: Example 15 hypolipidemic effect of peony/Codonopsis extract ratios in yolk emulsion hyperlipidemia mice. It is filed as in vivo. Particulars: hyperlipidemia ICR mice. The protocol:
Group H1 and B1 were mixed in different ratios (see Table 8) and formulated into different test medicines. Recommended dose (animal): H1+B1=200 mg/kg body weight, ig dose is 0.2 ml/10 g body weight. [table] 100 SPF ICR mice were employed with the body weight 20±2 g, half are male and the other half are female. Provided by Zhejiang Province Experimental Animal Center, Licence: SCXK(ZHE)2003-0001 90 ml yolk and 30 ml physiological Saline were mixed thoroughly in electric mixer to form emulsion, which was stored at 4° C. for further use. […]: test medicine 1-23 groups, postive control group (Zocor), model control group and normal control group, 10 mice for each group, half male and half female. […] The content of total cholesterol (TC), triglyceride (TG) and high density lipoprotein (HDL-C) of the serum were measured. T test was employed to analyze the significant difference between the groups. The result is shown in X±SD.

The test system of experiment [3] is hyperlipidemia mice. The experiment can be described thus: Example 16 dose screening of H1+B1 (4:1) in yolk emulsion hyperlipidemia mice. Type of experiment: in vivo, ICR mice. The settings on record: dose 20 mg/kg ig once daily 7 days; X±SD, 10 animals. How it is done:
H1 is peony extract obtained from Example 1. B1 is Codonopsis extract obtained from Example 7. The test medicines are mixtures of H1 and B1 with the ratio of 4:1 (the weight ratio of peony extract and Codonopsis extract is 2.7:1).
80 SPF ICR mice were employed with the body weight 20±2 g, half are male and the other half are female. Provided by Zhejiang Province Experimental Animal Center, Licence: SCXK(ZHE)2003-0001
as §1
as §2, with “80 ICR” for “140 ICR”, “into 8” for “into 14”, “5,” for “5, test medicine 6, test medicine 7, test medicine 8, test medicine 9, test medicine 10, test medicine 11,”, “a continuous” for “a continous”, “except for” for “except of”, “rest 7” for “rest 13”
T test was employed to analyze the significant difference between the groups. The result is shown in X±SD.

Where [4] appears, read: ig once daily 7 days, dose 20 mg/kg, X±SD, 10 animals.
The mark [5] stands for this setting: test medicines 200 mg/kg, positive control 20 mg/kg, ig 7 days.

On to `CCC(C)(C)C(=O)O[C@H]1C[C@@H](C)C=C2C=C[C@H](C)[C@H](CC[C@@H]3C[C@@H](O)CC(=O)O3)[C@H]21` [positive control group], for which, in the experiment with hyperlipidemia mice [1], the “HDL-C (serum high density lipoproteincholesterol content)” value is 1.39 ± 0.23 mmol/L, the HDL-C/TC is recorded as 0.18 ± 0.05, the “TC (total serum cholesterol content)” value stood at 8.58 ± 4.18 mmol/L and the “TG (serum triglyceride content)” value is 7.78 ± 5.36 mmol/L. For the same compound, in the experiment on hyperlipidemia mice [2] (setting [4]), the “HDL-C (serum high density lipoproteincholesterol content)” value is 1.59 ± 0.13 mmol/L, the HDL-C/TC is 0.22 ± 0.08, the “TC (total serum cholesterol content)” value was found to be 8.03 ± 3.12 mmol/L and the “TG (serum triglyceride content)” value worked out at 8.57 ± 4.20 mmol/L. Moreover, in the experiment on hyperlipidemia mice [2] (setting [5]), the “TC compared with model control group” value is “lower TC, with significant difference (P<0.05)” and the “TG compared with model control group” value is “lower TG, with significant difference (P<0.05)”. In the experiment with hyperlipidemia mice [3], the “HDL-C (serum high density lipoproteincholesterol content)” value worked out at 1.35 ± 0.15 mmol/L, the HDL-C/TC was determined as 0.26 ± 0.06, the “TC (total serum cholesterol content)” value is 5.97 ± 2.40 mmol/L and the “TG (serum triglyceride content)” value came out at 4.31 ± 3.28 mmol/L.

Values taken from US8628806B2, “Hypolipidemic composition and its use” (Hangzhou Minsheng Pharmaceutical Co., Ltd., priority 2006, dated 2014).
